pKi: −log10 of the molar value.
Molecular target: Cyclin-dependent kinase 2/cyclin E1 (Homo sapiens, UniProt P24941)
Assay: Inhibition of recombinant full length wild-type CDK2/Cyclin E1 (unknown origin) expressed in baculovirus expression system assessed as […] using 5-FAM-QSPKKG-CONH2 peptide as substrate preincubated with enzyme for 15 mins followed by further incubation with ATP for 45 mins by fluorescence-based microfluidic mobility shift assay

Structure (SMILES) | pKi
COc1ccc(CC(=O)Nc2cc([C@@H]3CC[C@H](OC(=O)N4CCC4(C)C)C3)[nH]n2)cn1 | 9.92
Cc1ncc(CC(=O)Nc2cc([C@H]3CC[C@@H](OC(=O)N4C[C@@H](C#N)[C@@H]4C)C3)[nH]n2)s1 (single isomer, unassigned) | 9.82
COc1ccc(CC(=O)Nc2cc([C@H]3CC[C@@H](OC(=O)N4C[C@@H](C#N)[C@@H]4C)C3)[nH]n2)cn1 (single isomer, unassigned) | 9.77
CCC(CO)CNC(=O)O[C@@H]1CC[C@H](c2cc(NC(=O)Cc3ccc(OC)nc3)n[nH]2)C1 (single isomer, unassigned) | 9.11

From ChEMBL document CHEMBL4665901, “Novel CDK2 Inhibitors for Treating Cancer” (ACS Med Chem Lett, 2020)
